According to patent US7635716B2, “Substituted cyclopentanes or cyclopentanones as therapeutic agents” (Allergan, Inc., priority 2005, dated 2009):
Read-outs that look alike come from different tables or passages of the source. Each block holds one compound with its values, some of them ahead of it.

Columns and labels:
[1] = target: T1, hEP3A/Gqi5 (Homo sapiens, UniProt P43115); assay: FLIPR calcium signal, HEK-293(EBNA) cells; type: cell-based
T1 construct: expressed in transfected cells; host or cells: HEK-293(EBNA) cells
T1 sequence (P43115 1-390): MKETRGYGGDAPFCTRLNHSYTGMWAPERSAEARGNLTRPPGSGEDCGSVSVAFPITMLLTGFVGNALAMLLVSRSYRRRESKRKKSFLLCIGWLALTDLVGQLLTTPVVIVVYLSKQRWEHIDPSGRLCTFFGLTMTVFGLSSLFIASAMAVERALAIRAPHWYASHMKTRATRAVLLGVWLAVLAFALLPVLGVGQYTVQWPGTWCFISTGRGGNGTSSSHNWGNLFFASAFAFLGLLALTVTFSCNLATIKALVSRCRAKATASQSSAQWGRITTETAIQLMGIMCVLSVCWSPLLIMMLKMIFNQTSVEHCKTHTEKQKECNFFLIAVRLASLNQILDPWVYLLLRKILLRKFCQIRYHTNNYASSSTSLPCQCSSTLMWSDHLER
Experimental: (§1) HEK-293(EBNA) cells, stably expressing one type or subtype of recombinant human prostaglandin receptors (prostaglandin receptors expressed: hDP/Gqs5; hEP1; hEP2/Gqs5; hEP3A/Gqi5; hEP4/Gqs5; hFP; hIP; hTP), were cultured in 100 mm culture dishes in high-glucose DMEM medium containing 10% fetal bovine serum, 2 mM 1-glutamine, 250 μg/ml geneticin (G418) and 200 μg/ml hygromycin B as selection markers, and 100 units/ml penicillin G, 100 μg/ml streptomycin and 0.25 μg/ml amphotericin B.
(§2) Cells were seeded at a density of 5×10^4 cells per well in Biocoat® Poly-D-lysine-coated black-wall, clear-bottom 96-well plates (Becton-Dickinson) and allowed to attach overnight in an incubator at 37° C. Cells were then washed two times with HBSS-HEPES buffer (Hanks Balanced Salt Solution without bicarbonate and phenol red, 20 mM HEPES, pH 7.4) using a Denley Cellwash plate washer (Labsystems). After 45 minutes of dye-loading in the dark, using the calcium-sensitive dye Fluo-4 AM at a final concentration of 2 μM, plates were washed four times with HBSS-HEPES buffer to remove excess dye leaving 100 μl in each well. Plates were re-equilibrated to 37° C. for a few minutes.
(§3) Cells were excited with an Argon laser at 488 nm, and emission was measured through a 510-570 nm bandwidth emission filter (FLIPR™, Molecular Devices, Sunnyvale, Calif.). Drug solution was added in a 50 μl volume to each well to give the desired final concentration. The peak increase in fluorescence intensity was recorded for each well. On each plate, four wells each served as negative (HBSS-HEPES buffer) and positive controls (standard agonists: BW245C (hDP); PGE2 (hEP1; hEP2/Gqs5; hEP3A/Gqi5; hEP4/Gqs5); PGF2. (hFP); carbacyclin (hIP); U-46619 (hTP), depending on receptor). The peak fluorescence change in each drug-containing well was then expressed relative to the controls.
(§4) Compounds were tested in a high-throughput (HTS) or concentration-response (CoRe) format. In the HTS format, forty-four compounds per plate were examined in duplicates at a concentration of 10^−5 M. To generate concentration-response curves, four compounds per plate were tested in duplicates in a concentration range between 10^−5 and 10^−11 M. The duplicate values were averaged. In either, HTS or CoRe format each compound was tested on at least 3 separate plates using cells from different passages to give an n≧3.

[2] = target: T2, hEP4/Gqs5 (Homo sapiens, UniProt P35408); assay: FLIPR calcium signal, HEK-293(EBNA) cells; type: cell-based
T2 construct: expressed in transfected cells; host or cells: HEK-293(EBNA) cells
T2 sequence (P35408 whole entry): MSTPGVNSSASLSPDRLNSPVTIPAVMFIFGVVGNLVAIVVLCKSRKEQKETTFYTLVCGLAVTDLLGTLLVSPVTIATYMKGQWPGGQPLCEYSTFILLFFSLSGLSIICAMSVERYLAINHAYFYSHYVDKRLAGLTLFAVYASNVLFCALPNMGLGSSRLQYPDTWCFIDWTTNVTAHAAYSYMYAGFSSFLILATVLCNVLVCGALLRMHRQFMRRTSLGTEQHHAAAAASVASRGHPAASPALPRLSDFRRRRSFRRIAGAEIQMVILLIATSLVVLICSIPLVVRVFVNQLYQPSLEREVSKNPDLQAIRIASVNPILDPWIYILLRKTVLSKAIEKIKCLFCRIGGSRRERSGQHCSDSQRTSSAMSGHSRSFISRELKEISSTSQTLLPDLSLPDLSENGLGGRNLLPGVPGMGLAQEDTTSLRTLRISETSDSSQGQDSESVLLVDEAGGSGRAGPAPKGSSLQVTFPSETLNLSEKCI
Experimental: as §1, §2, §3, §4

[3] = target: T3, hTP (Homo sapiens, UniProt P21731); assay: FLIPR calcium signal, HEK-293(EBNA) cells; type: cell-based
T3 construct: expressed in transfected cells; host or cells: HEK-293(EBNA) cells
T3 sequence (P21731 1-343): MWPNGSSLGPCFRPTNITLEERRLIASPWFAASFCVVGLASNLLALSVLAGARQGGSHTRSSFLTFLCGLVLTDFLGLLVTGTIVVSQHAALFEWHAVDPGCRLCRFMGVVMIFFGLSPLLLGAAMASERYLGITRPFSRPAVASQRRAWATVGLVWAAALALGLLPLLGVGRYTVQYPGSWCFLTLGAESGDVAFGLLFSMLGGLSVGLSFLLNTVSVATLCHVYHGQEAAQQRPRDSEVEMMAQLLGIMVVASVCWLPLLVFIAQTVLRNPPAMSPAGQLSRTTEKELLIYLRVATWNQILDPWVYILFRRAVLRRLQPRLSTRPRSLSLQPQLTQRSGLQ
Experimental: as §1, §2, §3, §4

[4] = target: T4, hEP2/Gqs5 (Homo sapiens, UniProt P43116); assay: FLIPR calcium signal, HEK-293(EBNA) cells; type: cell-based; details: Table 1, first part; triplicate; read-out: functional data (EC50) hEP2
T4 construct: expressed in transfected cells; host or cells: HEK-293(EBNA) cells
T4 sequence (P43116 whole entry): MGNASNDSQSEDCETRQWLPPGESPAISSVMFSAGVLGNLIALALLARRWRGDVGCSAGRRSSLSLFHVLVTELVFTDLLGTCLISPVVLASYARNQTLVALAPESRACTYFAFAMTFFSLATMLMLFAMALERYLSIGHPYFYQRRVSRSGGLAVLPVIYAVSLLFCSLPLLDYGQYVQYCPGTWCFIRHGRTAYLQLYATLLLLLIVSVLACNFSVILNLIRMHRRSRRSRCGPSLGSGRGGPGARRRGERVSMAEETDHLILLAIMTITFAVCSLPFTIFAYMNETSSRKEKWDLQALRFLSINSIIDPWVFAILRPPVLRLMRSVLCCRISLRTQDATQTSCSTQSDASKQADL
Experimental: as §1, §2, §3, §4

[5] = target: T5, hDP/Gqs5 (Homo sapiens, UniProt Q13258); assay: FLIPR calcium signal, HEK-293(EBNA) cells; type: cell-based
T5 construct: expressed in transfected cells; host or cells: HEK-293(EBNA) cells
T5 sequence (Q13258 1-359): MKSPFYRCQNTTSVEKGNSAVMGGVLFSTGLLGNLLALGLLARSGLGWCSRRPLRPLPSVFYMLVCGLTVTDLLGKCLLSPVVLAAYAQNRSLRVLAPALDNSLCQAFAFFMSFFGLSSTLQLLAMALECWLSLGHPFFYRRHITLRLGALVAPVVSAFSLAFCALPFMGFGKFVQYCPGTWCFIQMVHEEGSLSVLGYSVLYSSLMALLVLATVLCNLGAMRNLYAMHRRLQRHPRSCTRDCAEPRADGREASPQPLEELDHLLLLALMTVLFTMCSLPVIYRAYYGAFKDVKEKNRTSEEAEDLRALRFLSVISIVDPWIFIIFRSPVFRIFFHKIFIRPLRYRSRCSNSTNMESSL
Experimental: as §1, §2, §3, §4

[6] = target: T6, hFP (Homo sapiens, UniProt P43088); assay: FLIPR calcium signal, HEK-293(EBNA) cells; type: cell-based
T6 construct: expressed in transfected cells; host or cells: HEK-293(EBNA) cells
T6 sequence (P43088 whole entry): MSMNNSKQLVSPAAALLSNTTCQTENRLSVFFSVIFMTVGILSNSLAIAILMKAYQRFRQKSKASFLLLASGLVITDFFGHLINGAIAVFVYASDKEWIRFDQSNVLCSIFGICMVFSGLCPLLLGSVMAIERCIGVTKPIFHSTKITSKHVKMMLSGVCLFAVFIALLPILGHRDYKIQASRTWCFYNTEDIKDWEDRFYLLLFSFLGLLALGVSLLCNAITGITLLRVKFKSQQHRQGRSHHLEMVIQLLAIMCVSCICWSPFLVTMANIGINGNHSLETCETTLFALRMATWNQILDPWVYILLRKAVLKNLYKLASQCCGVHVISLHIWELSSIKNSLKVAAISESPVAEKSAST
Experimental: as §1, §2, §3, §4

[7] = tested on: normotensive dogs; assay: Intraocular pressure (IOP) in normotensive dogs; type: in vivo, dog; details: Canis lupus familiaris, topical, 120 h, dosing once daily for 5 days, read-out: maximum IOP decrease from baseline (percent)
Experimental: (§5) (Z)-7-[(1R,2S,3R,5R)-5-Chloro-2-(3,5-dichloro-phenoxymethyl)-3-hydroxy-cyclopentyl]-hept-5-enoic acid (15b) was tested at multiple concentrations in normotensive dogs, dosing once daily for 5 days. At 0.05%, the maximum IOP decrease from baseline was 4.3 mmHg (30%) at 6 h; the maximum OSH score was 0.6 at 6 h. […] This compound was also tested in laser-induced hypertensive monkeys, using one single day dose. At 0.1%, the maximum IOP decrease from baseline was 6 mmHg (19%) at 6 h.
(§6) (Z)-7-[(1R,2S,3R,5R)-5-Chloro-2-(3,5-dichloro-phenoxymethyl)-3-hydroxy-cyclopentyl]-hept-5-enoic acid isopropyl ester (42b) was tested in normotensive dogs at 0.05%, dosing once daily for 5 days. The maximum intraocular pressure (IOP) decrease from baseline was 3 mmHg (19%) at 6 h; the maximum ocular surface hyperemia (OSH) score was 0.6 at 74 h. This compound was also tested in laser-induced hypertensive monkeys, using one single day dose. At 0.01%, the maximum IOP decrease from baseline was 6 mmHg (16%) at 6 h.

[8] = tested on: normotensive dogs; assay: Ocular surface hyperemia (OSH) in normotensive dogs; type: in vivo, dog; set-up: maximum OSH score: scale not given here; details: dosing once daily for 5 days
Experimental: as §5, §6

[9] = tested on: laser-induced hypertensive monkeys; assay: Intraocular pressure (IOP) in laser-induced hypertensive monkeys; type: in vivo, monkey; details: Primates, topical, one single day dose, read-out: maximum IOP decrease from baseline (percent)
Experimental: as §5, §6

[10] = tested on: normotensive dogs; assay: Intraocular pressure (IOP) in normotensive dogs; type: in vivo, dog; details: Canis lupus familiaris, topical, 120 h, dosing once daily for 5 days, read-out: maximum IOP decrease from baseline (percent); remark: listed apart in the source

EC50 ([1]; Table 1, first part, data represents a single experiment, read-out: functional data (EC50) hEP3A*): 9.87 µM
EC50 ([1]; Table 1, second part, quantity not given, values match functional data (EC50) of first part, read-out: Other Receptors hEP3): 9.87 µM
EC50 ([2]; Table 1, first part, triplicate, read-out: functional data (EC50) hEP4): > 10 µM
EC50 ([2]; Table 1, second part, read-out: hEP4 flipr EC50): > 10 µM
EC50 ([3]; Table 1, first part, triplicate, read-out: functional data (EC50) hTP): > 10 µM
EC50 ([3]; Table 1, second part, quantity not given, values match functional data (EC50) of first part, read-out: Other Receptors hTP): > 10 µM
EC50 [4]: 0.616 µM
EC50 ([5]; Table 1, first part, triplicate, read-out: functional data (EC50) hDP): > 10 µM
EC50 ([5]; Table 1, second part, quantity not given, values match functional data (EC50) of first part, read-out: Other Receptors hDP): > 10 µM
EC50 ([6]; Table 1, first part, triplicate, read-out: functional data (EC50) hFP): > 10 µM
EC50 ([6]; Table 1, second part, quantity not given, values match functional data (EC50) of first part, read-out: Other Receptors hFP): > 10 µM
SMILES: COC(=O)CCC/C=C\C[C@@H]1[C@@H](COc2cc(Cl)cc(Cl)c2)[C@H](O)C[C@H]1Cl [Example 11, (Z)-7-[(1R,2S,3R,5R)-5-Chloro-2-(3,5-dichloro-phenoxymethyl)-3-hydroxy-cyclopentyl]-hept-5-enoic acid methyl ester]

maximum OSH score ([8]; 0.05%): 0.6
time of maximum OSH score ([8]; 0.05%): 74 h
SMILES: CC(C)OC(=O)CCC/C=C\C[C@@H]1[C@@H](COc2cc(Cl)cc(Cl)c2)[C@H](O)C[C@H]1Cl [Example 67, (Z)-7-[(1R,2S,3R,5R)-5-Chloro-2-(3,5-dichloro-phenoxymethyl)-3-hydroxy-cyclopentyl]-hept-5-enoic acid isopropyl ester]
inhibition in vivo at 0.05 % ([7]; 0.05%): 19%
inhibition in vivo at 0.01 % ([9]; 0.01%): 16%

maximum OSH score ([8]; 0.03%): 0.7
time of maximum OSH score ([8]; 0.03%): 78 h
SMILES: CC(C)OC(=O)CCC/C=C\C[C@@H]1[C@@H](COc2cc(C(F)(F)F)cc(C(F)(F)F)c2)[C@H](O)C[C@H]1Cl [Example 68, (Z)-7-[(1R,2S,3R,5R)-2-(3,5-Bis-trifluoromethyl-phenoxymethyl)-5-chloro-3-hydroxy-cyclopentyl]-hept-5-enoic acid isopropyl ester]
inhibition in vivo at 0.03 % [10]: 14%
inhibition in vivo at 0.03 % ([9]; 0.03%): 11%

maximum OSH score ([8]; 0.1%): 0.6
time of maximum OSH score ([8]; 0.1%): 50 h
SMILES: CC(C)OC(=O)CCC/C=C\C[C@@H]1[C@@H](COc2cccc(C(F)(F)F)c2)[C@H](O)C[C@H]1Cl [Example 69, (Z)-7-[(1R,2S,3R,5R)-5-Chloro-3-hydroxy-2-(3-trifluoromethyl-phenoxymethyl)-cyclopentyl]-hept-5-enoic acid isopropyl ester]
inhibition in vivo at 0.1 % [7]: 19%
inhibition in vivo at 0.1 % [9]: 14%

maximum OSH score ([8]; 0.1%): 0.9
time of maximum OSH score ([8]; 0.1%): 74 h
SMILES: Cc1cc(C)cc(OC[C@@H]2[C@@H](C/C=C\CCCC(=O)OC(C)C)[C@H](Cl)C[C@H]2O)c1 [Example 70, (Z)-7-[(1R,2S,3R,5R)-5-Chloro-2-(3,5-dimethyl-phenoxymethyl)-3-hydroxy-cyclopentyl]-hept-5-enoic acid isopropyl ester]
inhibition in vivo at 0.1 % [7]: 30%
inhibition in vivo at 0.1 % [9]: 23%

maximum OSH score ([8]; 0.1%): 0.6
time of maximum OSH score ([8]; 0.1%): 30 h
SMILES: CC(C)OC(=O)CCC/C=C\C[C@@H]1[C@@H](COc2ccc(CO)cc2)[C@H](O)C[C@H]1Cl [Example 71, (Z)-7-[(1R,2S,3R,5R)-5-Chloro-3-hydroxy-2-(4-hydroxymethyl-phenoxymethyl)-cyclopentyl]-hept-5-enoic acid isopropyl ester]
inhibition in vivo at 0.1 % [7]: 33%
inhibition in vivo at 0.1 % [9]: 16%
